# Paper PMC7265341, “Quantifying CDK inhibitor selectivity in live cells” (Nature Communications, 2020)
# Values joined by “and” are separate entries in the source; they are usually repeats but may differ in a detail not shown here. Equal entries are not always repeated. Where two headings read alike, the source gives them in different places.
# Tests used:
# Type in all cases: binding
# CDK11A/Cyclin L2 = biological target: T1, CDK11A/Cyclin L2 (Homo sapiens, UniProt Q9UQ88); test: NanoBRET live-cell target engagement, CDK11A-NanoLuc/Cyclin L2 in HEK-293; details: read-out: CDK11a/L2 Inhibition at 10µM (%), 10µM
# T1 sequence (Q9UQ88 1-783): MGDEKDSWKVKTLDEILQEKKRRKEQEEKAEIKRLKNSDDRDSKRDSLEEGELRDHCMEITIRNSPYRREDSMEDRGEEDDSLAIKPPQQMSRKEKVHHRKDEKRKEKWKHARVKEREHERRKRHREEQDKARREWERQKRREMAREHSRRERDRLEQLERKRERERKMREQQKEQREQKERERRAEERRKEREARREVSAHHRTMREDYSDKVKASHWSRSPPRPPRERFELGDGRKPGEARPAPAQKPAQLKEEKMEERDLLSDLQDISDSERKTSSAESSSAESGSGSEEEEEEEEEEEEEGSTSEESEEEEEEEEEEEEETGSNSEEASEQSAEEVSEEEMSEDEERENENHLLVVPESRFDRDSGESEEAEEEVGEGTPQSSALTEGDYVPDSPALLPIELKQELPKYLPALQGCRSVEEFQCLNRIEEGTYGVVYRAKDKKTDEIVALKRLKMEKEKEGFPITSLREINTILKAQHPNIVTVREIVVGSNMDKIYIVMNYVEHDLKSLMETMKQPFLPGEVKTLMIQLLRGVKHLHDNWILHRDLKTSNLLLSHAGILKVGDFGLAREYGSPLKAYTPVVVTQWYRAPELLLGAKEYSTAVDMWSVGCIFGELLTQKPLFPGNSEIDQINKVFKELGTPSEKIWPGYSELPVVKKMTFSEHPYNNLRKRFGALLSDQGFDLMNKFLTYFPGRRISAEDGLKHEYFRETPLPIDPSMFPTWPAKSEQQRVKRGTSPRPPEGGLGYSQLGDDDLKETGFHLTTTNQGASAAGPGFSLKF
# CDK6 = CDK6 (Homo sapiens, UniProt Q00534); test: Intracellular residence time by cellular washout, CDK6; details: Panel B;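 also: NanoBRET cellular washout in live cells: compound preincubated 2 h at 37 °C, then removed, energy transfer probe association tracked over time versus DMSO vehicle, rising BRET indicating target release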
# Chain of CDK6 (Q00534 whole entry): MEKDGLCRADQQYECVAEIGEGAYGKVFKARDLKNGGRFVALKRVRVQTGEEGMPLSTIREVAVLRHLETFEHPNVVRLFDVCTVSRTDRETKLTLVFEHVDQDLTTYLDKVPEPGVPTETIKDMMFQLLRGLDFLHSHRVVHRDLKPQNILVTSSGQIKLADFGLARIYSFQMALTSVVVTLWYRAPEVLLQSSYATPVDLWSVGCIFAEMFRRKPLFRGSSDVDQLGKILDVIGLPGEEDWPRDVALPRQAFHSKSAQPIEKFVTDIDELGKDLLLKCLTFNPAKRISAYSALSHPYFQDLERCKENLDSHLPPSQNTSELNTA
# Chain of CDK6 (P24385 whole entry partner): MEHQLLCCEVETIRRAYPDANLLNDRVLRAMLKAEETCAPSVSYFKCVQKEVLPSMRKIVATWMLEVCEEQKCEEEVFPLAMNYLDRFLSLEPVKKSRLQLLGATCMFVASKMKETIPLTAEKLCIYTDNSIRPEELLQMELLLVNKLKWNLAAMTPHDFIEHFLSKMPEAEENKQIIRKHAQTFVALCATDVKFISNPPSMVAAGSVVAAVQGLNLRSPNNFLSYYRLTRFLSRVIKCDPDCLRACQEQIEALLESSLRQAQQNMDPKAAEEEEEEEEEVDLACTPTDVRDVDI
# CDK2 = CDK2 (Homo sapiens, UniProt P24941); test: Intracellular residence time by cellular washout, CDK2; details: for CDK2 occupancy after compound washout (%): Panel B;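 as to all read-outs here: NanoBRET live-cell washout assay after 2 h compound pretreatment at 37 °C, rising energy-transfer probe signal tracks loss of CDK2 engagement, compared against DMSO vehicle cells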
# [1] = Time (Min) 32.9743, listed as RGB-286638
compound,measurement,setting,value
COCCN1CCN(Cc2ccc(-c3n[nH]c4c3C(=O)c3c(NC(=O)NN5CCOCC5)cccc3-4)cc2)CC1 [RGB286638],inhibition at 10 µM,CDK11A/Cyclin L2; average of experiments,41.5%
same,inhibition at 10 µM,CDK11A/Cyclin L2; independent experiment 1,16.8%
same,inhibition at 10 µM,CDK11A/Cyclin L2; independent experiment 2,66.3%
same,CDK6 occupancy (%) over time after compound washout,CDK6; Time (Min) 0,82.1951 and 85.1351 and 80.5402
same,CDK6 occupancy (%) over time after compound washout,CDK6; Time (Min) 2.97013,79.5935 and 83.3333 and 77.8966
same,CDK6 occupancy (%) over time after compound washout,CDK6; Time (Min) 5.97045,77.3984 and 80.6306 and 74.3678
same,CDK6 occupancy (%) over time after compound washout,CDK6; Time (Min) 8.97078,75.7724 and 78.2883 and 76.8161
same,CDK6 occupancy (%) over time after compound washout,CDK6; Time (Min) 11.9714,73.9024 and 76.5766 and 70.3448
same,CDK6 occupancy (%) over time after compound washout,CDK6; Time (Min) 14.9718,72.7642 and 74.3243 and 69.1954
same,CDK6 occupancy (%) over time after compound washout,CDK6; Time (Min) 17.9723,71.5447 and 72.4324 and 67.4713
same,CDK6 occupancy (%) over time after compound washout,CDK6; Time (Min) 20.9723,70.4878 and 71.2613 and 68.046
same,CDK6 occupancy (%) over time after compound washout,CDK6; Time (Min) 23.9731,69.0244 and 70.3604 and 68.6207
same,CDK6 occupancy (%) over time after compound washout,CDK6; Time (Min) 26.9737,68.8618 and 68.5586 and 67.4713
same,CDK6 occupancy (%) over time after compound washout,CDK6; Time (Min) 29.9742,67.3171 and 67.8378 and 66.8966
same,CDK6 occupancy (%) over time after compound washout,CDK6; [1],67.6423 and 66.9369 and 67.1264
same,CDK6 occupancy (%) over time after compound washout,CDK6; Time (Min) 35.9749,67.2358 and 66.5766 and 66.0919
same,CDK6 occupancy (%) over time after compound washout,CDK6; Time (Min) 38.9753,66.8293
same,CDK6 occupancy (%) over time after compound washout,CDK6; Time (Min) 236.996,66.1789 and 64.7748 and 56.7816
same,CDK6 occupancy (%) over time after compound washout,CDK6; Time (Min) 239.996,65.6911 and 64.3243 and 56.5517
same,CDK6 occupancy (%) over time after compound washout,CDK6; Time (Min) 242.996,66.4228 and 63.0631 and 56.3218
same,CDK6 occupancy (%) over time after compound washout,CDK6; Time (Min) 245.996,65.6911 and 63.5135 and 59.5402
same,CDK6 occupancy (%) over time after compound washout,CDK6; Time (Min) 248.996,65.6911 and 63.0631 and 59.5402
same,CDK6 occupancy (%) over time after compound washout,CDK6; Time (Min) 251.996,65.7724 and 63.1531 and 61.6092
same,CDK6 occupancy (%) over time after compound washout,CDK6; Time (Min) 254.996,65.8537 and 64.3243 and 54.7126
same,CDK6 occupancy (%) over time after compound washout,CDK6; Time (Min) 257.996,64.9594 and 63.3333 and 57.7011
same,CDK6 occupancy (%) over time after compound washout,CDK6; Time (Min) 260.996,65.1219 and 63.8739 and 51.954
same,CDK6 occupancy (%) over time after compound washout,CDK6; Time (Min) 263.996,63.9024 and 63.4234 and 57.1264
same,CDK6 occupancy (%) over time after compound washout,"CDK6; Time (Min) 266.996, listed as RGB-286638",65.5285 and 63.1531 and 57.4713
same,CDK6 occupancy (%) over time after compound washout,CDK6; Time (Min) 269.996,64.7968 and 62.5225 and 59.6552
same,CDK6 occupancy (%) over time after compound washout,CDK6; Time (Min) 272.996,65.8537 and 62.5225 and 60.3448
same,CDK6 occupancy (%) over time after compound washout,CDK6; Time (Min) 275.996,64.3902 and 62.0721 and 53.3333
same,CDK6 occupancy (%) over time after compound washout,CDK6; Time (Min) 278.996,65.2032 and 62.6126 and 63.7931
same,CDK6 occupancy (%) over time after compound washout,CDK6; Time (Min) 281.996,64.8781 and 62.0721 and 57.7011
same,CDK6 occupancy (%) over time after compound washout,CDK6; Time (Min) 284.996,65.7724 and 63.3333 and 62.8736
same,CDK6 occupancy (%) over time after compound washout,CDK6; Time (Min) 287.996,63.5772 and 62.5225 and 61.3793
same,CDK6 occupancy (%) over time after compound washout,CDK6; Time (Min) 290.996,62.6016 and 62.5225 and 59.8851
same,CDK6 occupancy (%) over time after compound washout,CDK6; Time (Min) 293.996,64.5529 and 62.8829 and 61.8391
same,CDK2 occupancy after compound washout (%),CDK2; Time (Min) 0,86.242 and 90.073 and 94.3307
same,CDK2 occupancy after compound washout (%),CDK2; Time (Min) 2.97013,79.5117 and 80.9002 and 88.1102
same,CDK2 occupancy after compound washout (%),CDK2; Time (Min) 5.97045,73.673 and 73.2847 and 82.0472
same,CDK2 occupancy after compound washout (%),CDK2; Time (Min) 8.97078,68.5138 and 66.4964 and 75.5906
same,CDK2 occupancy after compound washout (%),CDK2; Time (Min) 11.9714,64.0977 and 61.0706 and 70.5249
same,CDK2 occupancy after compound washout (%),CDK2; Time (Min) 14.9718,59.9363 and 55.5961 and 65.5381
same,CDK2 occupancy after compound washout (%),CDK2; Time (Min) 17.9723,56.1571 and 50.7299 and 61.601
same,CDK2 occupancy after compound washout (%),CDK2; Time (Min) 20.9723,52.6752 and 47.2263 and 57.3753
same,CDK2 occupancy after compound washout (%),CDK2; Time (Min) 23.9731,49.9788 and 43.4307 and 53.9895
same,CDK2 occupancy after compound washout (%),CDK2; Time (Min) 26.9737,47.0913 and 40.219 and 51.2336
same,CDK2 occupancy after compound washout (%),CDK2; Time (Min) 29.9742,44.5011 and 36.91 and 47.9003
same,CDK2 occupancy after compound washout (%),CDK2; [1],42.1444 and 34.1363 and 45.2756
same,CDK2 occupancy after compound washout (%),CDK2; Time (Min) 35.9749,39.724 and 31.4599 and 43.3596
same,CDK2 occupancy after compound washout (%),CDK2; Time (Min) 38.9753,37.5584 and 29.5864 and 40.3675
same,CDK2 occupancy after compound washout (%),CDK2; Time (Min) 41.9753,36.0722 and 27.129 and 39.4488
same,CDK2 occupancy after compound washout (%),CDK2; Time (Min) 44.9758,33.3121 and 25.1582 and 36.6667
same,CDK2 occupancy after compound washout (%),CDK2; Time (Min) 47.9761,31.6136 and 23.6253 and 35.2756
same,CDK2 occupancy after compound washout (%),CDK2; Time (Min) 50.9766,29.9788 and 21.8978 and 32.9134
same,CDK2 occupancy after compound washout (%),CDK2; Time (Min) 53.9771,27.983 and 20.1946 and 30.7874
same,CDK2 occupancy after compound washout (%),CDK2; Time (Min) 56.9772,27.3885 and 18.0049 and 30.0525
same,CDK2 occupancy after compound washout (%),CDK2; Time (Min) 59.9777,25.9023 and 17.2749 and 28.5564
same,CDK2 occupancy after compound washout (%),CDK2; Time (Min) 62.9781,24.4161 and 15.8151 and 27.3753
same,CDK2 occupancy after compound washout (%),CDK2; Time (Min) 65.9785,22.9299 and 14.3552 and 26.2992
same,CDK2 occupancy after compound washout (%),CDK2; Time (Min) 68.9792,21.4437 and 13.6253 and 25.1706
same,CDK2 occupancy after compound washout (%),CDK2; Time (Min) 71.9792,20.5945 and 12.1655 and 24.252
same,CDK2 occupancy after 2 h of analysis following compound washout,"CDK2; live cells, probe 1 at 1 µM",fully dissociated
